Measured values taken from patent US7432260B2, “Pyrimidine compounds” (Cyclacel Limted, priority 2002, dated 2008).
Where two headings read alike, the source gives them in different places.

Experiments:
CDK2/cyclin E = CDK2/cyclin E (Homo sapiens, UniProt P24941); assay: Kinase assay CDK2/cyclin E; assay type: biochemical
Procedure, shortened: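 Recombinant kinase (2-4 μg) with polypeptide substrate in pH 7.4 MOPS/β-glycerophosphate buffer; started with 15 mM MgCl2 + 100 μM ATP plus [γ-32P]-ATP, incubated at 30° C. Stopped on ice, filtered, washed in orthophosphoric acid; incorporated 32P counted by scintillation.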

[1] = Compound cytotoxicity in PBMCs (MTS); assay type: cell-based; settings: human, concentration decreasing cell viability by 50%, read-out: PBMC TC50
Method: (§1) Representative compounds of the present invention were tested for antiviral activity against HIV-1 in human peripheral blood mononuclear cells (PBMCs) using the clinical paediatric HIV strain RoJo or WeJo. PBMCs were cultured under conditions which promote cell survival and HIV replication. Antiviral activity was tested for from 6-9 log10 serial dilutions of a 100 μM compound stock solution in DMSO.
(§2) Fresh PBMCs, seronegative for HIV and HBV, were isolated from screened donors (Interstate Blood Bank, Inc. Memphis, Term.). Cells were pelleted/washed 2-3 times by low speed centrifugation and re-suspension in PBS to remove contaminating platelets. […] Banded PBMCs were gently aspirated from the resulting interface and subsequently washed with PBS by low speed centrifugation. After the final wash, cells were enumerated by trypan blue exclusion and re-suspended in RPMI 1640 supplemented with fetal bovine serum (FBS), and L-glutamine, Phytohemagglutinin (PHA-P, Sigma). The cells were allowed to incubate at 37° C. After incubation, PBMCs were centrifuged and resuspended in RPMI 1640 with FBS, L-glutamine, penicillin, streptomycin, gentamycin, and recombinant human IL-2 (R&D Systems, Inc). IL-2 is included in the culture medium to maintain the cell division initiated by the PHA mitogenic stimulation. PBMCs were maintained in this with bi-weekly medium changes until used in the assay protocol. Cells were kept in culture for a maximum of two weeks before being deemed too old for use in assays and discarded. Monocytes were depleted from the culture as the result of adherence to the tissue culture flask.
(§3) For the standard PBMC assay, PHA-P stimulated cells from at least two normal donors were pooled, diluted and plated in the interior wells of a 96-well round bottom microplate. Pooling of mononuclear cells from more than one donor was used to minimise the variability observed between individual donors, which results from quantitative and qualitative differences in HIV infection and overall response to the PHA and IL-2 of primary lymphocyte populations. Each plate contained virus/cell control wells (cells plus virus), experimental wells (drug plus cells plus virus) and compound control wells (drug plus media […], necessary for MTS monitoring of cytotoxicity). Since HIV-1 is not cytopathic to PBMCs, this allows the use of the same assay plate for both antiviral activity and cytotoxicity measurements. Test drug dilutions were prepared in microtiter tubes and each concentration was placed in appropriate wells using the standard format. A predetermined dilution of virus stock was placed in each test well (final MOI≅0.1). The PBMC cultures were maintained for seven days following infection at 37° C., 5% CO2. After this period, cell-free supernatant samples were collected for analysis of reverse transcriptase activity and/or HIV p24 content. Following removal of supernatant samples, compound cytotoxicity was measured by addition of MTS to the plates for determination of cell viability. Wells were also examined microscopically and any abnormalities were noted.

[2] = system: HIV-1 (clinical paediatric strain RoJo or WeJo) in human PBMCs; assay: Anti-HIV efficacy evaluation in fresh human PBMCs; assay type: cell-based; settings: for IC50 / IC90: Human immunodeficiency virus 1, PBMC, 168 h, seven days following infection; for IC50: concentration inhibiting virus replication by 50%; for IC90: concentration inhibiting virus replication by 90%
Method: as §1, §2, §3
Reverse transcriptase activity assay: A microtiter plate-based reverse transcriptase (RT) reaction was utilised (Buckheit et al., AIDS Research and Human Retroviruses 7:295-302, 1991). Tritiated thymidine triphosphate (^3H-TTP, 80 Ci/mmol, NEN) was received in 1:1 dH2O:Ethanol at 1 mCi/mL. Poly rA:oligo dT template:primer (Pharmacia) was prepared as a stock solution, followed by aliquoting and storage at −20° C. The RT reaction buffer was prepared fresh on a daily basis. The final reaction mixture was prepared by combining ^3H-TTP, dH2O, poly rA:oligo dT stock and reaction buffer. This reaction mixture was placed in a round bottom microtiter plate and supernatant containing virus was added and mixed. The plate was incubated at 37° C. for 60 minutes. Following incubation, the reaction volume was spotted onto DE81 filter-mats (Wallac), in a sodium phosphate buffer or 2×SSC (Life Technologies). […]

[3] = target: CaMKII (calmodulin-depependent kinase II); assay: Kinase assay CaMKII; assay type: biochemical; settings: Table 3 selectivity panel; read-out: Kinase specificity IC50 CaMKII
Method: (§4) Kinase assays. […] This was achieved by measurement of incorporation of radioactive phosphate from ATP into appropriate polypeptide substrates. Recombinant protein kinases and kinase complexes were produced or obtained commercially. Assays were performed using 96-well plates and appropriate assay buffers (typically 25 mM β-glycerophosphate, 20 mM MOPS, 5 mM EGTA, 1 mM DTT, 1 mM […], pH 7.4), into which were added 2-4 μg of active enzyme with appropriate substrates. The reactions were initiated by addition of Mg/ATP mix (15 mM MgCl2+100 μM ATP with 30-50 kBq per well of [γ-^32P]-ATP) and mixtures incubated as required at 30° C. Reactions were stopped on ice, followed by filtration through p81 filterplates or GF/C filterplates (Whatman Polyfiltronics, Kent, UK). After washing 3 times with 75 mM aq orthophosphoric acid, plates were dried, scintillant added and incorporated radioactivity measured in a scintillation counter (TopCount, Packard Instruments, Pangbourne, Berks, UK). Compounds for kinase assay were made-up as 10 mM stocks in DMSO and diluted into 10% DMSO inrassay buffer.

Hela = assay: 72-h MTT cytotoxicity assay Hela; assay type: cell-based; settings: Homo sapiens, Table 5, Cervix
Method: (§5) MTT cytotoxicity assay. […] Standard 72-h MTT (thiazolyl blue; 3-[4,5-dimethylthiazol-2-yl]-2,5-diphenyltetrazolium bromide) assays were performed (Haselsberger, K.; Peterson, D. C.; Thomas, D. G.; Darling, J. L. Anti Cancer Drugs 1996, 7, 331-8; Loveland, B. E.; Johns, T. G.; Mackay, I. R.; Vaillant, F.; Wang, Z. X.; Hertzog, P. J. Biochemistry International 1992, 27, 501-10). In short: cells were seeded into 96-well plates according to doubling time and incubated overnight at 37° C. Test compounds were made up in DMSO and a 1/3 dilution series prepared in 100 μL cell media, added to cells (in triplicates) and incubated for 72 ho at 37° C. MTT was made up as a stock of 5 mg/mL in cell media and filter-sterilised. Media was removed from cells followed by a wash with 200 μL PBS.
(§6) MTT solution was then added at 20 μL per well and incubated in the dark at 37° C. for 4 h. MTT solution was removed and cells again washed with 200 μL PBS. MTT dye was solubilised with 200 μL per well of DMSO with agitation.

CCRF-CEM = assay: 72-h MTT cytotoxicity assay CCRF-CEM; assay type: cell-based; settings: Homo sapiens, Table 5, Leukemia
Method: as §5, §6

[4] = target: p70 ribosomal protein S6 kinase (Homo sapiens, UniProt P23443); assay: Kinase assay p70/S6; assay type: biochemical; settings: Table 3 selectivity panel; read-out: Kinase specificity IC50 p70/S6
Method: as §4

[5] = Table 2, read-out: Kinase Inhibition IC50 CDK2 cyclin E
[6] = Table 3 selectivity panel, read-out: Kinase specificity IC50 CDK2/E

p70 ribosomal protein S6 kinase, sequence (P23443 91-352 limits assumed): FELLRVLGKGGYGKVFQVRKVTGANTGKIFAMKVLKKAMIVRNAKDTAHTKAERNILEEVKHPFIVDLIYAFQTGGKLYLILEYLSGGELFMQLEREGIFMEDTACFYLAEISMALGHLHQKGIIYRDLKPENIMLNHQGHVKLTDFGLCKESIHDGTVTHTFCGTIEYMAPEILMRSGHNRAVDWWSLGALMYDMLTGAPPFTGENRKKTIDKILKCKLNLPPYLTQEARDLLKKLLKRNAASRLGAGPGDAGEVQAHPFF

Row | SMILES | IC50 (CDK2/cyclin E; [5]) [nM] | CC50 at 7 days [1] [nM] | IC50 [2] [nM] | IC90 [2] [nM] | IC50 [3] [nM] | IC50 (Hela) [nM] | IC50 (CCRF-CEM) [nM] | IC50 (CDK2/cyclin E; [6]) [nM] | IC50 [4] [nM] | anti-viral effect in cell based assays [2]
1 | Cc1nc(C)c(-c2ccnc(Nc3ccc(NC(=O)CN4CCCC4)cc3)n2)s1 [Compound 53, N-{4-[4-(2,4-Dimethyl-thiazol-5-yl)-pyrimidin-2-ylamino]-phenyl}-2-pyrrolidin-1-yl-acetamide] | 520 | 1600 | 812 | 871 | – | – | – | – | – | –
2 | CCNc1nc(C)c(-c2ccnc(Nc3ccc(N4CCOCC4)cc3)n2)s1 [Compound 4, [4-(2-Ethylamino-4-methyl-thiazol-5-yl)-pyrimidin-2-yl]-(4-morpholin-4-yl-phenyl)-amine] | – | 9400 | 166 | 295 | – | – | – | – | – | –
3 | CC[C@@H](N)C(=O)Nc1nc(C)c(-c2ccnc(Nc3cccc([N+](=O)[O-])c3)n2)s1 [Compound 16, (2R)-2-Amino-N-{4-methyl-5-[2-(3-nitro-phenylamino)-pyrimidin-4-yl]-thiazol-2-yl}-butyramide] | 320 | – | – | – | 11000 | 400 | 1100 | 350 | 8000 | –
4 | CNc1nc(C)c(-c2ccnc(Nc3ccc(N4CCOCC4)cc3)n2)s1 [Compound 3, [4-(2-N-Methylamino-4-methyl-thiazol-5-yl)-pyrimidin-2-yl]-(4-morpholinophenyl)-amine] | – | > 100000 | 297 | 679 | > 100000 | – | – | – | 2600 | –
5 | Cc1nc(NC(=O)[C@H](N)[C@@H](C)O)sc1-c1ccnc(Nc2cccc([N+](=O)[O-])c2)n1 [Compound 15, (2R,3R)-2-Amino-3-hydroxy-N-{4-methyl-5-[2-(3-nitro-phenylamino)-pyrimidin-4-yl]-thiazol-2-yl}-butyramide] | 130 | 2400 | 124 | 385 | 3900 | 700 | 2600 | 150 | > 100000 | –
6 | CNc1nc(C)c(-c2ccnc(Nc3ccc(N4CCN(Cc5ccccc5)CC4)cc3)n2)s1 [Compound 11, [4-(4-Benzyl-piperazin-1-yl)-phenyl]-[4-(4-methyl-2-methylamino-thiazol-5-yl)-pyrimidin-2-yl]-amine] | 260 | – | – | – | 56000 | 6200 | 500 | 260 | > 100000 | –
7 | Cc1nc(N)sc1-c1ccnc(Nc2ccc(N3CCOCC3)cc2)n1 [Compound 1, [4-(2-Amino-4-methyl-thiazol-5-yl)-pyrimidin-2-yl]-(4-morpholin-4-yl-phenyl)-amine] | – | 6100 | 1330 | 2640 | – | 1800 | 900 | – | – | particularly effective anti-viral agent
